Data set [1] can be described thus: xn = mol fraction of the nth substance listed. The note with it: 101 kPa, Liquid, Taylor dispersion method, x1 = 0.
The conditions of data set [2]: 101 kPa, Liquid, Taylor dispersion method.

With `[N-]=[N+]=O` [nitrous oxide] + O, the binary diffusion coefficient was determined as 1.7e-09 m2/s in data set [1] (293.15 K); 2.05e-09 m2/s in data set [1] (298.15 K); 2.3e-09 m2/s in data set [1] (303.15 K); 2.99e-09 m2/s in data set [1] (313.15 K); 4.02e-09 m2/s in data set [1] (323.15 K); 4.9e-09 m2/s in data set [1] (333.15 K). Also, the binary diffusion coefficient came to 5.79e-09 m2/s in data set [1] (343.15 K), 7.09e-09 m2/s in data set [1] (353.15 K), 8.23e-09 m2/s in data set [1] (363.15 K) and 8.87e-09 m2/s in data set [1] (368.15 K).

With `O` [water], the self diffusion coefficient is 1.7e-09 m2/s in data set [2] (293.15 K); 2.05e-09 m2/s in data set [2] (298.15 K); 2.3e-09 m2/s in data set [2] (303.15 K); 2.99e-09 m2/s in data set [2] (313.15 K); 4.02e-09 m2/s in data set [2] (323.15 K); 4.9e-09 m2/s in data set [2] (333.15 K). In addition, the self diffusion coefficient in data set [2] (343.15 K) was 5.79e-09 m2/s; in data set [2] (353.15 K), 7.09e-09 m2/s; in data set [2] (363.15 K) it was 8.23e-09 m2/s; in data set [2] (368.15 K) it was 8.87e-09 m2/s.

These data come from the NIST ThermoML archive (doi:10.1021/je700717w).
